The values below come from US9981909B2 (Janssen Pharmaceutica NV, priority 2008, dated 2018).

For orientation: Ki means a measure of affinity in units of concentration, obtained from inhibition or displacement.

Assay [1] addresses r5-HT7 receptor (Rattus norvegicus (Rat), UniProt P32305). Nature of the assay: HitHunter cAMP assay, antagonist testing against 100 nM 5-CT. Format: cell-based. The note with it: antagonist testing, 100 nM 5-CT challenge, HEK-293 r5-HT7; read-out: R5HT7 cAMP pKb (converted). As to the method: Receptor binding was performed using membrane fractions prepared from the HEK-293 cell line recombinantly expressing rat 5-HT7 receptors (NCBI accession NM_022938). Compound affinity for the rat 5-HT7 receptor subtype was evaluated by competitive radioligand binding assays using 5-carboxamido[^3H]tryptamine ([^3H]5-CT) (Amersham Biosciences, cat. 90000403) detection. HitHunter™ cAMP assays are in-vitro based competitive immunoassays. The assay was performed on the HEK-293 cell line stably transfected with r5-HT7 receptor. Cells were pre-incubated with test compounds for 10 minutes. For antagonist testing, the cells were then challenged with 100 nM 5-CT for 20 minutes. Cells were then lysed and cAMP measured according to manufacturers protocol (Amersham, cat. NET791250UC) or [^3H]mesulergine (Amersham, cat. TRK1041). The assay was performed on membranes prepared from HEK-293 cells stably transfected with h5-HT6. Following centrifugation, membranes were resuspended and incubated for 60 min at room temperature with 1.7 nM [^3H]LSD in the presence of increasing concentration of test compounds. Nonspecific binding was defined in the presence of 10 μM clozapine (Tocris, cat. TRK1068). Homogenized HEK-293 membranes expressing the human SERT were incubated in 50 mM Tris-HCl (pH 7.5), 120 mM NaCl, 5 mM KCl with [^3H]-citalopram (3 nM) with or without test compounds. Nonspecific binding was determined in the presence of 10 μM fluoxetine. Radioactivity readouts and Ki values were performed as previously described for r5-HT7. […] Compounds were assayed in their free form or as salts, as indicated in the Examples section above.
In general terms: Changes in cAMP serve as a functional read-out for many G protein-coupled receptors.

The target of assay [2] is human SERT (Homo sapiens (Human), UniProt P31645). As to the kind of experiment: human SERT binding assay with [3H]-citalopram on HEK-293 membranes. The note with it: read-out: hSERT binding Ki.
Sequence of human SERT (P31645 whole entry): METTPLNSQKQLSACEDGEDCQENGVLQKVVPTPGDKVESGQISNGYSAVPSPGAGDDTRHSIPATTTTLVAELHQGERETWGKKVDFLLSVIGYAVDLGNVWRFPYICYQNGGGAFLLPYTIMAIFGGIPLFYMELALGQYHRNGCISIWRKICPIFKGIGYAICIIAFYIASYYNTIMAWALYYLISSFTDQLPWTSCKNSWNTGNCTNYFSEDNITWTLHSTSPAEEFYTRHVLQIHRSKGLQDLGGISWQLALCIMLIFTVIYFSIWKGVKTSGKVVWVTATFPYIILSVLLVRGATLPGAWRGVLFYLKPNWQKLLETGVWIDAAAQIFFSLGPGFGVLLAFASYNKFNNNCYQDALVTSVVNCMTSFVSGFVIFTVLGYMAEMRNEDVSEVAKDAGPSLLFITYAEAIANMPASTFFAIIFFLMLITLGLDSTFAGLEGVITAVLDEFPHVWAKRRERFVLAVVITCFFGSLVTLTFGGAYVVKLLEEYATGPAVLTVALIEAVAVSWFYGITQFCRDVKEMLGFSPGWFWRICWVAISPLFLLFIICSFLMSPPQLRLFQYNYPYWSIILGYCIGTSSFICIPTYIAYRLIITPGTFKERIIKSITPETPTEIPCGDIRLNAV
For assay [3], the target named is rat 5-HT7 receptor (Rattus norvegicus (Rat), UniProt P32305). As to the kind of experiment: r5-HT7 binding assay, competitive radioligand binding with [3H]5-CT. The conditions noted are these: rat 5-HT7 receptor, HEK-293 membranes. In short, it runs like this:
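Competition against [3H]5-CT on rat 5-HT7 HEK-293 membranes; Ki from radioactivity. Functional: 10 min compound, 100 nM 5-CT for 20 min, cAMP immunoassay after lysis.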

Molecules are shown by their SMILES. Where a name gives a salt, the structure may show the parent alone.

Sequence of r5-HT7 receptor (P32305 1-435): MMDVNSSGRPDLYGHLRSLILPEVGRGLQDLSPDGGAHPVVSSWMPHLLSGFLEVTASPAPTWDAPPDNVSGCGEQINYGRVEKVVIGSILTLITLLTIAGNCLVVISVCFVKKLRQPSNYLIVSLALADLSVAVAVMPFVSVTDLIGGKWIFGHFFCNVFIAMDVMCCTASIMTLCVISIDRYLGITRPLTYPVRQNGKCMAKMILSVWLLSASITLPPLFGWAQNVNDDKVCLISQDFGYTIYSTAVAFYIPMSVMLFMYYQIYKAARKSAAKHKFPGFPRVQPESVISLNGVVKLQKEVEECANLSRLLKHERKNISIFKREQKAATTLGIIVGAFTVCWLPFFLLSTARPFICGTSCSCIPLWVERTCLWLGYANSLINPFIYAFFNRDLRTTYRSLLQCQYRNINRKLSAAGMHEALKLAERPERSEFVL
Sequence of rat 5-HT7 receptor (P32305 1-435): as above

With `Fc1ccc2c(c1)CCC2Oc1ccc(Br)cc1OC1CNC1` (racemic) [Example 154, (±)-3-[5-Bromo-2-(5-fluoro-indan-1-yloxy)-phenoxy]-azetidine], the Kb in assay [1] is 20 nM. For the same compound, the Ki in assay [2] came out at 13 nM; in assay [3], 18 nM.
In the case of `FC(F)(F)c1ccc2c(c1)C(Oc1ccc(Br)cc1OC1CNC1)CC2` (racemic) [Example 157, (±)-3-[5-Bromo-2-(6-trifluoromethyl-indan-1-yloxy)-phenoxy]-azetidine], in assay [1], the Kb was 5.01 nM. In addition, the Ki in assay [2] was found to be 181 nM; in assay [3], 10 nM.
The like results for `Brc1ccc(OCc2ccccc2)c(OC2CNC2)c1` [Example 1, 3-(2-Benzyloxy-5-bromo-phenoxy)-azetidine] were, in that order, 12.6 nM, 48 nM and 9 nM.
With `Clc1cccc(COc2ccc(Br)cc2OC2CN(C3CCC3)C2)c1` [Example 3, 3-[5-Bromo-2-(3-chloro-benzyloxy)-phenoxy]-1-cyclobutyl-azetidine], in assay [1], the Kb was 2.51 nM. Also, the inhibition constant (Ki) in assay [2] stood at 381 nM; in assay [3], 18 nM.
The like results for `CC(C)N1CC(Oc2cc(Br)ccc2OCc2cccc(Cl)c2)C1` [Example 5, 3-[5-Bromo-2-(3-chloro-benzyloxy)-phenoxy]-1-isopropyl-azetidine] were, in that order, 5.01 nM, 194 nM and 8 nM.
The like results for `CCN1CC(Oc2cc(Br)ccc2OCc2cccc(Cl)c2)C1` [Example 6, 3-[5-Bromo-2-(3-chloro-benzyloxy)-phenoxy]-1-ethyl-azetidine] were, in that order, 3.98 nM, 249 nM and 6 nM.
Taken in the same sequence, the figures for `FC(F)(F)Oc1cccc(COc2ccc(Br)cc2OC2CNC2)c1` [Example 7, 3-[5-Bromo-2-(3-trifluoromethoxy-benzyloxy)-phenoxy]-azetidine] were 63.1 nM, 23 nM and 10 nM.
Regarding `FC(F)(F)c1cccc(COc2ccc(Br)cc2OC2CNC2)c1` [Example 8, 3-[5-Bromo-2-(3-trifluoromethyl-benzyloxy)-phenoxy]-azetidine], in assay [1], the Kb is 7.94 nM. Besides, the Ki in assay [2] amounted to 4 nM; in assay [3], 6 nM.
The like results for `N#Cc1cccc(COc2ccc(Br)cc2OC2CNC2)c1` [Example 9, 3-[2-(Azetidin-3-yloxy)-4-bromo-phenoxymethyl]-benzonitrile] were, in that order, 20 nM, 2 nM and 11 nM.
The like results for `Fc1ccc(COc2ccc(Br)cc2OC2CNC2)cc1Cl` [Example 12, 3-[5-Bromo-2-(3-chloro-4-fluoro-benzyloxy)-phenoxy]-azetidine] were, in that order, 3.16 nM, 6 nM and 11 nM.
`COc1ccc(COc2ccc(Br)cc2OC2CNC2)cc1Cl` [Example 13, 3-[5-Bromo-2-(3-chloro-4-methoxy-benzyloxy)-phenoxy]-azetidine]: in assay [1], the Kb was 3.98 nM. The Ki in assay [2] came out at 6 nM; in assay [3], 4 nM.
The like results for `Clc1ccc(COc2ccc(Br)cc2OC2CNC2)cc1` [Example 14, 3-[5-Bromo-2-(4-chloro-benzyloxy)-phenoxy]-azetidine trifluoroacetate] were, in that order, 158 nM, 52 nM and 12 nM.
The like results for `CCN1CC(Oc2cc(Br)ccc2OCc2cccc(F)c2)C1` [Example 18, 3-[5-Bromo-2-(3-fluoro-benzyloxy)-phenoxy]-1-ethyl-azetidine] were, in that order, 1.58 nM, 435 nM and 5 nM.
The like results for `CCCN1CC(Oc2cc(Br)ccc2OCc2cccc(F)c2)C1` [Example 19, 3-[5-Bromo-2-(3-fluoro-benzyloxy)-phenoxy]-1-propyl-azetidine] were, in that order, 2 nM, 396 nM and 4 nM.
As to `Fc1ccc(COc2ccc(Cl)cc2OC2CNC2)cc1` [Example 25, 3-[5-Chloro-2-(4-fluoro-benzyloxy)-phenoxy]-azetidine hydrochloride], the Kb in assay [1] was 39.8 nM. For the same compound, the Ki in assay [2] came to 19 nM; in assay [3], 18 nM.
Taken in the same sequence, the figures for `COc1cccc(COc2ccc(Cl)cc2OC2CNC2)c1` [Example 33, 3-[5-Chloro-2-(3-methoxy-benzyloxy)-phenoxy]-azetidine] were 15.8 nM, 8 nM and 7 nM.
Taken in the same sequence, the figures for `N#Cc1cccc(COc2ccc(Cl)cc2OC2CNC2)c1` [Example 34, 3-[2-(Azetidin-3-yloxy)-4-chloro-phenoxymethyl]-benzonitrile] were 39.8 nM, 1 nM and 29 nM.
Turning to `Clc1ccc(OCc2ccccc2Cl)c(OC2CNC2)c1` [Example 35, 3-[5-Chloro-2-(2-chloro-benzyloxy)-phenoxy]-azetidine trifluroacetate], the Kb in assay [1] is 1000 nM. Moreover, the Ki in assay [2] was found to be 3 nM; in assay [3], 23 nM.
The like results for `Clc1ccc(COc2ccc(Cl)cc2OC2CNC2)cc1` [Example 36, 3-[5-Chloro-2-(4-chloro-benzyloxy)-phenoxy]-azetidine trifluoroacetate] were, in that order, 794 nM, 36 nM and 15 nM.
The like results for `FC(F)(F)c1cccc(COc2ccc(Cl)cc2OC2CNC2)c1` [Example 39, 3-[5-Chloro-2-(3-trifluoromethyl-benzyloxy)-phenoxy]-azetidine] were, in that order, 3.16 nM, 4 nM and 7 nM.
On to `Clc1ccc(OCc2ccccc2)c(OC2CNC2)c1` [Example 40, 3-(2-Benzyloxy-5-chloro-phenoxy)-azetidine], for which the Kb in assay [1] is 39.8 nM. For the same compound, the results for the Ki in assay [2] and in assay [3] were 43 nM and 9 nM, respectively.
Consider `FC(F)(F)c1cc(COc2ccc(Cl)cc2OC2CNC2)ccc1Cl` [Example 49, 3-[5-Chloro-2-(4-chloro-3-trifluoromethyl-benzyloxy)-phenoxy]-azetidine], for which the Kb in assay [1] is 25.1 nM. In addition, the Ki in assay [2] was found to be 40 nM; in assay [3], 13 nM.
Taken in the same sequence, the figures for `Clc1ccc(OCc2ccc(Cl)c(Cl)c2)c(OC2CNC2)c1` [Example 50, 3-[5-Chloro-2-(3,4-dichloro-benzyloxy)-phenoxy]-azetidine] were 31.6 nM, 5 nM and 10 nM.
The like results for `FC(F)(F)c1ccc(COc2ccc(Cl)cc2OC2CCNCC2)o1` [Example 63, 4-[5-Chloro-2-(5-trifluoromethyl-furan-2-ylmethoxy)-phenoxy]-piperidine hydrochloride] were, in that order, 25.1 nM, 48 nM and 7 nM.
Taken in the same sequence, the figures for `Clc1ccc(OC2CCCc3ccccc32)c(OC2CNC2)c1` (stereo not drawn) [Example 161, 3-[5-Chloro-2-(1,2,3,4-tetrahydro-naphthalen-1-yloxy)-phenoxy]-azetidine] were 15.8 nM, 60 nM and 28 nM.
On to `Clc1ccc(OC2Cc3ccccc3C2)c(OC2CNC2)c1` [Example 173, 3-[5-Chloro-2-(indan-2-yloxy)-phenoxy]-azetidine], for which the Kb in assay [1] is 7.94 nM. The Ki in assay [2] was 56 nM; in assay [3] it was 7 nM.
Taken in the same sequence, the figures for `Brc1ccc(OC2Cc3ccccc3C2)c(OC2CNC2)c1` [Example 174, 3-[5-Bromo-2-(indan-2-yloxy)-phenoxy]-azetidine] were 6.31 nM, 42 nM and 6 nM.
The like results for `ON=C(COc1ccc(Cl)cc1OC1CNC1)c1ccccc1` [Example 181, 2-[2-(Azetidin-3-yloxy)-4-chloro-phenoxy]-1-phenyl-ethanone oxime] were, in that order, 20 nM, 967 nM and 19 nM.
For `CN1CC(Oc2cc(F)ccc2OCc2cccc(Cl)c2)C1` [Example 203, 3-[2-(3-Chloro-benzyloxy)-5-fluoro-phenoxy]-1-methyl-azetidine], the Kb in assay [1] is 20 nM. Also, the Ki in assay [2] is 271 nM; in assay [3] it was 24 nM.
Taken in the same sequence, the figures for `CC(C)N1CC(Oc2cc(F)ccc2OCc2ccc(C(F)(F)F)o2)C1` [Example 209, 3-[5-Fluoro-2-(5-trifluoromethyl-furan-2-ylmethoxy)-phenoxy]-1-isopropyl-azetidine] were 20 nM, 20 nM and 13 nM.
